Measured values: ChEMBL document CHEMBL6134780, “Halogenated retinoid derivatives as dual RARα and RXRα modulators for treating acute promyelocytic leukemia cells” (Eur J Med Chem, 2024)
The source made the active and inactive calls. The rule behind the calls is not given here.

Tests used:
[1] = test system: NB-4; test: Cell cycle arrest in human NB4 cells assessed as accumulation of cells at sub-G1 phase at 1 uM incubated for 12 hrs by DAPI staining based flow cytometric analysis (reference value: 2 %); format: functional
[2] = test system: NB-4; test: Induction of apoptosis in human NB4 cells assessed as viable cells at 1 uM incubated for 24 hrs by Annexin V-FITC/PI staining based flow cytometric analysis (reference value: 92.36 %); format: functional; conditions: read-out: Activity
[3] = biological target: T1, Retinoic acid receptor gamma (Homo sapiens) (UniProt P13631); test: Agonist activity at Gal4-fused full length human RARgamma LBD transfected in HEK293T cells co-transfected with pG5luc reporter and Renilla-luc assessed as transactivation by measuring maximal efficacy incubated for 12 hrs by dual luciferase reporter gene assay relative to control; format: cell-based; conditions: filed as agonist
T1 sequence (whole entry): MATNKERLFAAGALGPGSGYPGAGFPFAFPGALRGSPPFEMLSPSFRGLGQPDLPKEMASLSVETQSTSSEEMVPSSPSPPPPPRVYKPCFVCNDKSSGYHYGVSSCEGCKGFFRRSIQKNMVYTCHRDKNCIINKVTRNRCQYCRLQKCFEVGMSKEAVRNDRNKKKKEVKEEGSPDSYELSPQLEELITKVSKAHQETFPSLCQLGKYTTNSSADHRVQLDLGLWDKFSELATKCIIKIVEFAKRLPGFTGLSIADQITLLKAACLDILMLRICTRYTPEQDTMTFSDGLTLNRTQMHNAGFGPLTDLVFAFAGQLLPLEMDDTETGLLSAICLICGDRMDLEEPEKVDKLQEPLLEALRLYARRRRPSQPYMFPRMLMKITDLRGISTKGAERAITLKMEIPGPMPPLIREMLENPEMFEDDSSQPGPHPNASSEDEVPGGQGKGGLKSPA

[4] = test system: NB-4; test: Induction of apoptosis in human NB4 cells assessed as necrotic cells at 1 uM incubated for 24 hrs by Annexin V-FITC/PI staining based flow cytometric analysis (reference value: 0.07 %); format: functional
[5] = test system: NB-4; test: Induction of apoptosis in human NB4 cells assessed as late apoptotic cells at 1 uM incubated for 24 hrs by Annexin V-FITC/PI staining based flow cytometric analysis (reference value: 3.20 %); format: functional
[6] = test system: K562; test: Induction of cell differentiation in human K562 cells at 0.5 uM incubated for 6 days by CD11b staining based flow cytometric analysis; format: functional; conditions: time 6.0 day
[7] = test system: NB-4; test: Cell cycle arrest in human NB4 cells assessed as accumulation of cells at S phase at 1 uM incubated for 12 hrs by DAPI staining based flow cytometric analysis (reference value: 20 %); format: functional
[8] = test system: NB-4; test: Cell cycle arrest in human NB4 cells assessed as accumulation of cells at G2/M phase at 1 uM incubated for 12 hrs by DAPI staining based flow cytometric analysis (reference value: 26 %); format: functional
[9] = test system: Jurkat; test: Induction of cell differentiation in human Jurkat cells at 0.5 uM incubated for 6 days by CD11b staining based flow cytometric analysis; format: functional; conditions: time 6.0 day
[10] = Induction of apoptosis in human ATRA-resistant NB4-LR2 cells assessed as viable cells at 1 uM incubated for 24 hrs by Annexin V-FITC/PI staining based flow cytometric analysis (reference value: 87.30 %); format: functional; conditions: read-out: Activity
[11] = test system: NB-4; test: Antiproliferative activity against human NB4 cells assessed as inhibition of cell viability at 0.1 uM incubated for 3 days by CCK8 assay relative to control; format: functional; conditions: NB-4, 72 h, time 3 day
[12] = Cell cycle arrest in human ATRA-resistant NB4-LR2 cells assessed as accumulation of cells at G2/M phase at 1 uM incubated for 12 hrs by DAPI staining based flow cytometric analysis (reference value: 28 %); format: functional
[13] = test system: NB-4; test: Induction of cell death in M phase synchronized human NB4 cells assessed as reduction in mitotic cells at 0.5 uM preincubated for 4 days followed by release from thymidine block for 10 hrs by immunofluorescence staining based analysis; format: functional; conditions: time 106.0 hrs
[14] = Cell cycle arrest in human ATRA-resistant NB4-LR2 cells assessed as accumulation of cells at G0/G1 phase at 1 uM incubated for 12 hrs by DAPI staining based flow cytometric analysis (reference value: 42 %); format: functional
[15] = test system: K562; test: Induction of apoptosis in human K562 cells assessed as early apoptotic cells at 2 uM incubated for 24 hrs by Annexin V-FITC/PI staining based flow cytometric analysis (reference value: 0.91 %); format: functional
[16] = test system: NB-4; test: Cell cycle arrest in human NB4 cells assessed as accumulation of cells at G2/M phase at 0.5 uM incubated for 6 days for DAPI staining based flow cytometric analysis (reference value: 15 %); format: functional; conditions: time 6 day
[17] = test system: NB-4; test: Induction of cell differentiation in human NB4 cells at 0.5 uM incubated for 4 to 6 days by CD11b staining based flow cytometric analysis; format: functional; conditions: time 4-6 day
[18] = test system: NB-4; test: Cell cycle arrest in human NB4 cells assessed as accumulation of cells at sub-G1 phase at 0.5 uM incubated for 6 days for DAPI staining based flow cytometric analysis (reference value: 6 %); format: functional; conditions: time 6 day
[19] = Induction of apoptosis in human ATRA-resistant NB4-LR2 cells assessed as late apoptotic cells at 1 uM incubated for 24 hrs by Annexin V-FITC/PI staining based flow cytometric analysis (reference value: 7.23 %); format: functional
[20] = test system: NB-4; test: Cell cycle arrest in human NB4 cells assessed as accumulation of cells at S phase at 0.5 uM incubated for 6 days for DAPI staining based flow cytometric analysis (reference value: 27 %); format: functional; conditions: time 6 day
[21] = test system: K562; test: Induction of apoptosis in human K562 cells assessed as late apoptotic cells at 2 uM incubated for 24 hrs by Annexin V-FITC/PI staining based flow cytometric analysis (reference value: 5.98 %); format: functional
[22] = test system: NB-4; test: Cell cycle arrest in human NB4 cells assessed as accumulation of cells at G0/G1 phase at 1 uM incubated for 12 hrs by DAPI staining based flow cytometric analysis (reference value: 51 %); format: functional
[23] = Induction of apoptosis in human ATRA-resistant NB4-LR2 cells assessed as necrotic cells at 1 uM incubated for 24 hrs by Annexin V-FITC/PI staining based flow cytometric analysis (reference value: 0.08 %); format: functional
[24] = test system: K562; test: Induction of apoptosis in human K562 cells assessed as necrotic cells at 2 uM incubated for 24 hrs by Annexin V-FITC/PI staining based flow cytometric analysis (reference value: 2.19 %); format: functional
[25] = Induction of apoptosis in human ATRA-resistant NB4-LR2 cells assessed as early apoptotic cells at 1 uM incubated for 24 hrs by Annexin V-FITC/PI staining based flow cytometric analysis (reference value: 5.38 %); format: functional
[26] = test system: ATRA-resistant NB4-LR2; test: Antiproliferative activity against human ATRA-resistant NB4-LR2 cells assessed as effect on cell viability up to 2 uM incubated for 3 days by CCK8 assay; format: functional, cell-based; conditions: time 3.0 day
[27] = test system: HEK293T; test: Agonist activity at full length RARalpha LBD R276E mutant (unknown origin) transfected in HEK293T cells co-transfected with pG5luc reporter and Renilla-luc at 1 uM incubated for 12 hrs by luciferase reporter gene assay; format: cell-based; conditions: Homo sapiens, filed as agonist
[28] = Cell cycle arrest in human ATRA-resistant NB4-LR2 cells assessed as accumulation of cells at S phase at 1 uM incubated for 12 hrs by DAPI staining based flow cytometric analysis (reference value: 12 %); format: functional
[29] = species: Homo sapiens; test: Binding affinity to N-terminal His-tagged human RARalpha LBD R276E mutant extracted from Escherichia coli BL21 (DE3) cells by ITC analysis
[30] = test system: K562; test: Effect on cell cycle population in human K562 cells at 0.5 uM by DAPI staining based flow cytometric analysis; format: functional
[31] = test system: K562; test: Induction of apoptosis in human K562 cells assessed as viable cells at 2 uM incubated for 24 hrs by Annexin V-FITC/PI staining based flow cytometric analysis (reference value: 90.02 %); format: functional; conditions: read-out: Activity
[32] = Cell cycle arrest in human ATRA-resistant NB4-LR2 cells assessed as accumulation of cells at sub-G1 phase at 1 uM incubated for 12 hrs by DAPI staining based flow cytometric analysis (reference value: 18 %); format: functional
[33] = test system: NB-4; test: Cell cycle arrest in human NB4 cells assessed as accumulation of cells at G0/G1 phase at 0.5 uM incubated for 6 days for DAPI staining based flow cytometric analysis (reference value: 52 %); format: functional; conditions: time 6 day
[34] = test system: NB-4; test: Induction of cell differentiation in human NB4 cells assessed as NBT positive cells at 0.5 uM incubated for 6 days by Nitro Blue tetrazolium chloride based microscopic analysis (reference value: 0 %); format: functional; conditions: time 6 day
[35] = test system: NB-4; test: Induction of apoptosis in human NB4 cells assessed as early apoptotic cells at 1 uM incubated for 24 hrs by Annexin V-FITC/PI staining based flow cytometric analysis (reference value: 4.37 %); format: functional
[36] = biological target: T2, Retinoic acid receptor alpha (Homo sapiens) (UniProt P10276); test: Agonist activity at full length RARalpha LBD (unknown origin) transfected in HEK293T cells co-transfected with pG5luc reporter and Renilla-luc assessed as transactivation at 0.5 to 1 uM incubated for 12 hrs by luciferase reporter gene assay; format: cell-based; conditions: filed as agonist, dose 0.5-1 µM
T2 sequence (whole entry): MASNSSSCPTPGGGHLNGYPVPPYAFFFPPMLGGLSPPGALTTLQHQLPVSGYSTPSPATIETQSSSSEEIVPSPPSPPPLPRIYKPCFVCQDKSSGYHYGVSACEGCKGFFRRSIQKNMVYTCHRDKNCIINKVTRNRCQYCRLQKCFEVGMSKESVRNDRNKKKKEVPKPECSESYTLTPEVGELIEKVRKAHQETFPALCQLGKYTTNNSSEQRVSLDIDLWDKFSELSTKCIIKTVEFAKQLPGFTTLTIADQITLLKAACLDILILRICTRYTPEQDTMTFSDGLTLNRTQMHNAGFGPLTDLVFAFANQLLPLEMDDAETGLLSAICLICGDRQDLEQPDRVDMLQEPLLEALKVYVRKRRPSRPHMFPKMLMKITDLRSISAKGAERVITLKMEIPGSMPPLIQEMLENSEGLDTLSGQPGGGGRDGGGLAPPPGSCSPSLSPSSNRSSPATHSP

`CC1=C(/C=C/C(C)=C/C=C/C(C)=C/C(=O)O)C(C)(C)CCC1` [TRETINOIN] gave an Activity [1] of 2%, a viability at 1 µM [2] of 90.4% and an Emax [3] of 100%. The Activity [4] was 0.13%, the Activity [5] was 6.37% and the Activity [6] was “inactive”. For the same compound, the Activity [7] was 10%, the Activity [8] was 23% and the Activity [9] was “inactive”. For the same compound, the viability at 1 µM [10] was 88.6%, the inhibition at 0.1 µM [11] was about 40% and the Activity [12] was 27%. The Activity [13] was “Active”, the Activity [14] was 43% and the Activity [15] was 1.04%. For the same compound, the Activity [16] was 16%, the Activity [17] was “Active” and the Activity [18] was 3%. It also gave an Activity [19] of 7.92%, an Activity [20] of 17% and an Activity [21] of 6.84%. The Activity [22] was 65%, the Activity [23] was 0.08% and the Activity [24] was 2.01%. For the same compound, the Activity [25] was 3.39%, the Activity [26] was “inactive” and the Activity [27] was “Active; Partial Impairment Observed”. For the same compound, the Activity [28] was 11%, the Activity [29] was “inactive” and the Activity [30] was “inactive”. It also gave a viability at 2 µM [31] of 89.5%, an Activity [32] of 19% and an Activity [33] of 64%. For the same compound, the Activity [34] was 33% and the Activity [35] was 3.11%.

With `Cc1cc2c(cc1C(=O)/C(I)=C\c1ccc(C(=O)O)cc1)C(C)(C)CCC2(C)C` the Activity [36] was “Active”.
